Laboratory results from publication PMC12621043, “Un-LOK-ing a New Approach for Conformational Selective Targeting of STK10 (LOK)” (ACS Medicinal Chemistry Letters, 2025).

Each compound was assayed against T1, EPHA5A (Homo sapiens, UniProt P54756) (assay: DSF Tm panel). Details: 10 μM compound.
T1 construct: purchased in-house DSF kinase panel (SGC-style construct names; the trailing letter is the construct ID)
T1 sequence (P54756 653-939): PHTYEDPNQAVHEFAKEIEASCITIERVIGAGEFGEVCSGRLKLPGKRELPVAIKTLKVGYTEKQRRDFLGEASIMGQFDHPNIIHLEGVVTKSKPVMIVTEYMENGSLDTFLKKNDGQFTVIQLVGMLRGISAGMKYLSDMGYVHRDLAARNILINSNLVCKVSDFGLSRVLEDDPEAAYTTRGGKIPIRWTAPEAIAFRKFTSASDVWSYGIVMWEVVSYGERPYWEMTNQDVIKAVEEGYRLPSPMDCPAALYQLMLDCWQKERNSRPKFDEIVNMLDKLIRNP
Assay type: binding

Structure (SMILES) | ΔTm at 10 µM [°C]
COc1ccc(CNC(=O)Nc2ccc3cc2OCCOCCNc2ccn4ncc-3c4n2)cc1F [compound 32] | 1.2
COc1cc(CNC(=O)Nc2ccc3cc2OCCOCCNc2ccn4ncc-3c4n2)ccc1F [compound 33] | 1.4
C[C@H](NC(=O)Nc1ccc2cc1OCCOCCNc1ccn3ncc-2c3n1)c1ccccc1 [compound 34] | 1
CN1CCN(C(=O)Nc2ccc3cc2OCCOCCNc2ccn4ncc-3c4n2)CC1 [compound 35] | -0.5

Each compound was assayed against T2, PAK1A (Homo sapiens, UniProt Q13153) (assay: DSF Tm panel). Details: 10 μM compound.
T2 construct: purchased in-house DSF kinase panel (SGC-style construct names; the trailing letter is the construct ID)
T2 sequence (Q13153 249-545): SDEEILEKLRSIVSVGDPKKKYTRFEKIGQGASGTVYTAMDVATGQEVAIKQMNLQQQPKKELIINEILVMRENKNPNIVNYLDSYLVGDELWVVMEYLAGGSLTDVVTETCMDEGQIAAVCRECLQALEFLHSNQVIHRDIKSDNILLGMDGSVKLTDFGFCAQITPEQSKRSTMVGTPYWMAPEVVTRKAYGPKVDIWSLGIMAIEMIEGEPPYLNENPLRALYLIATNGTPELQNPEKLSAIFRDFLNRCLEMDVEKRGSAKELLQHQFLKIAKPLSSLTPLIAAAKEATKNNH
Assay type: binding

Structure (SMILES) | ΔTm at 10 µM [°C]
COc1ccc(CNC(=O)Nc2ccc3cc2OCCOCCNc2ccn4ncc-3c4n2)cc1F [compound 32] | 1
COc1cc(CNC(=O)Nc2ccc3cc2OCCOCCNc2ccn4ncc-3c4n2)ccc1F [compound 33] | 0.5
C[C@H](NC(=O)Nc1ccc2cc1OCCOCCNc1ccn3ncc-2c3n1)c1ccccc1 [compound 34] | 0.3
CN1CCN(C(=O)Nc2ccc3cc2OCCOCCNc2ccn4ncc-3c4n2)CC1 [compound 35] | -0.1

What follows are compounds tested against T3, MAPK15A (MAPK15HSD) (Homo sapiens, UniProt Q8TD08) (assay: DSF Tm panel). Details: 10 μM compound.
T3 sequence (Q8TD08 13-304 limits assumed): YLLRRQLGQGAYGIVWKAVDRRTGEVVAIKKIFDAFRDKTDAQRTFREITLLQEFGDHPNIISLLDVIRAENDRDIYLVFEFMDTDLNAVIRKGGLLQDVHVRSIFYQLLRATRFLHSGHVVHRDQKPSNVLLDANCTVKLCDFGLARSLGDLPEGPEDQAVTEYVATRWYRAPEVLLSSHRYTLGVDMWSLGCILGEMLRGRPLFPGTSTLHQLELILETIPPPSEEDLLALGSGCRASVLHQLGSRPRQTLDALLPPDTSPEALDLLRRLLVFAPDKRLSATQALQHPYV
Assay type: binding

Structure (SMILES) | ΔTm at 10 µM [°C]
COc1ccc(CNC(=O)Nc2ccc3cc2OCCOCCNc2ccn4ncc-3c4n2)cc1F [compound 32] | 2.5
COc1cc(CNC(=O)Nc2ccc3cc2OCCOCCNc2ccn4ncc-3c4n2)ccc1F [compound 33] | 3.3
C[C@H](NC(=O)Nc1ccc2cc1OCCOCCNc1ccn3ncc-2c3n1)c1ccccc1 [compound 34] | 2.1
CN1CCN(C(=O)Nc2ccc3cc2OCCOCCNc2ccn4ncc-3c4n2)CC1 [compound 35] | 2

The compounds below were run against T4, DYRK2A (Homo sapiens, UniProt Q92630) (assay: DSF Tm panel). Details: 10 μM compound.
T4 construct: purchased in-house DSF kinase panel (SGC-style construct names; the trailing letter is the construct ID)
T4 sequence (Q92630 1-601): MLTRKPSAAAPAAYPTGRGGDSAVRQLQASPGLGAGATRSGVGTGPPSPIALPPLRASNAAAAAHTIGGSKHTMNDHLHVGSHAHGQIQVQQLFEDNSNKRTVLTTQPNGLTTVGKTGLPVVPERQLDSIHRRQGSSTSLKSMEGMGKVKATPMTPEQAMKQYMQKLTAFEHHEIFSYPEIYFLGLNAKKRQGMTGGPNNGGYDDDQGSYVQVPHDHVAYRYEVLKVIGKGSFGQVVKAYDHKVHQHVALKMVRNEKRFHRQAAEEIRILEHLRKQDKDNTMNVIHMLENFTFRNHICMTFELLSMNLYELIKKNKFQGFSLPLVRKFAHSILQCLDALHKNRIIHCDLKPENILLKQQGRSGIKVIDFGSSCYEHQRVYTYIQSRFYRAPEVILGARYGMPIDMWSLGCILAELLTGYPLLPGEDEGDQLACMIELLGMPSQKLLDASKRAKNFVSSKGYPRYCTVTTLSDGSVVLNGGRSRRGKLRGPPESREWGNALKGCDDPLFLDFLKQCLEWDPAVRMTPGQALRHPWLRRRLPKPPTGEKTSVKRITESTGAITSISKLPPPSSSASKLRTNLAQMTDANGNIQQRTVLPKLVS
Assay type: binding

Structure (SMILES) | ΔTm at 10 µM [°C]
COc1ccc(CNC(=O)Nc2ccc3cc2OCCOCCNc2ccn4ncc-3c4n2)cc1F [compound 32] | 1.8
COc1cc(CNC(=O)Nc2ccc3cc2OCCOCCNc2ccn4ncc-3c4n2)ccc1F [compound 33] | 3.9
C[C@H](NC(=O)Nc1ccc2cc1OCCOCCNc1ccn3ncc-2c3n1)c1ccccc1 [compound 34] | 4.3
CN1CCN(C(=O)Nc2ccc3cc2OCCOCCNc2ccn4ncc-3c4n2)CC1 [compound 35] | 1.8

What follows are compounds tested against T5, FESA (Homo sapiens, UniProt P07332) (assay: DSF Tm panel). Details: 10 μM compound.
T5 construct: purchased in-house DSF kinase panel (SGC-style construct names; the trailing letter is the construct ID)
T5 sequence (P07332 whole entry): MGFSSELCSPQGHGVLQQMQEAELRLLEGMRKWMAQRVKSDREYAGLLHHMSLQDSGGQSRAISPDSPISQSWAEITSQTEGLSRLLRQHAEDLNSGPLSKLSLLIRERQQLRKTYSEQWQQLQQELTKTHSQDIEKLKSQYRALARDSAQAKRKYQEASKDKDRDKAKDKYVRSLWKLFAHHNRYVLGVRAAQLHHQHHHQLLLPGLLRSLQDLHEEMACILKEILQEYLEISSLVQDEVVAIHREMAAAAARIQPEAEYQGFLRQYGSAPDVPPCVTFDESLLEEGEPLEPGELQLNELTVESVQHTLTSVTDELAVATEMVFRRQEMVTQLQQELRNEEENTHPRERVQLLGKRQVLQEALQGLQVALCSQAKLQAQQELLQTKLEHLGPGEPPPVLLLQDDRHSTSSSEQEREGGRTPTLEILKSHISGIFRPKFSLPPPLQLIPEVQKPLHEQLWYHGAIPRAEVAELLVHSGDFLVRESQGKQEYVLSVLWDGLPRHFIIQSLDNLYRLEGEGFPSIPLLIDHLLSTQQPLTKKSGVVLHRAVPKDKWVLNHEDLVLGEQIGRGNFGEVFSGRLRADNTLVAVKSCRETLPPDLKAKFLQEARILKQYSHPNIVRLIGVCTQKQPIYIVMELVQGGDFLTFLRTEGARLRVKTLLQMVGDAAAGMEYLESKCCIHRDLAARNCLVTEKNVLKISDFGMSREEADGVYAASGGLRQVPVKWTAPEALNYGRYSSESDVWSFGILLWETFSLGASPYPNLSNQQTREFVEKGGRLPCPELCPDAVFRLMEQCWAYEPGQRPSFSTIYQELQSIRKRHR
Assay type: binding

Structure (SMILES) | ΔTm at 10 µM [°C]
COc1ccc(CNC(=O)Nc2ccc3cc2OCCOCCNc2ccn4ncc-3c4n2)cc1F [compound 32] | 0.8
COc1cc(CNC(=O)Nc2ccc3cc2OCCOCCNc2ccn4ncc-3c4n2)ccc1F [compound 33] | 0.5
C[C@H](NC(=O)Nc1ccc2cc1OCCOCCNc1ccn3ncc-2c3n1)c1ccccc1 [compound 34] | 1.3
CN1CCN(C(=O)Nc2ccc3cc2OCCOCCNc2ccn4ncc-3c4n2)CC1 [compound 35] | -0.2

What follows are compounds tested against T6, MAPK9A (Homo sapiens, UniProt P45984) (assay: DSF Tm panel). Details: 10 μM compound.
T6 construct: purchased in-house DSF kinase panel (SGC-style construct names; the trailing letter is the construct ID)
T6 sequence (P45984 7-364): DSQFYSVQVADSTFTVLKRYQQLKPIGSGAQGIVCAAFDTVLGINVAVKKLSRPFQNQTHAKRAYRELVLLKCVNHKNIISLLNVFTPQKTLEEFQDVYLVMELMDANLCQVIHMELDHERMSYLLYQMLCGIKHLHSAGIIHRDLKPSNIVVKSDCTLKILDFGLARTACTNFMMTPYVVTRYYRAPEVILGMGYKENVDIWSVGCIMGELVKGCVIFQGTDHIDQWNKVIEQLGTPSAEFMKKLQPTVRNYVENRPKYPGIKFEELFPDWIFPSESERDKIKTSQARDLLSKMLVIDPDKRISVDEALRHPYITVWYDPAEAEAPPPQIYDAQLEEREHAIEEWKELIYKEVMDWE
Assay type: binding

Structure (SMILES) | ΔTm at 10 µM [°C]
COc1ccc(CNC(=O)Nc2ccc3cc2OCCOCCNc2ccn4ncc-3c4n2)cc1F [compound 32] | -0.6
COc1cc(CNC(=O)Nc2ccc3cc2OCCOCCNc2ccn4ncc-3c4n2)ccc1F [compound 33] | -1.2
C[C@H](NC(=O)Nc1ccc2cc1OCCOCCNc1ccn3ncc-2c3n1)c1ccccc1 [compound 34] | -2
CN1CCN(C(=O)Nc2ccc3cc2OCCOCCNc2ccn4ncc-3c4n2)CC1 [compound 35] | 0.4

What follows are compounds tested against T7, MST4A (Homo sapiens, UniProt Q9P289) (assay: DSF Tm panel). Details: 10 μM compound.
T7 construct: purchased in-house DSF kinase panel (SGC-style construct names; the trailing letter is the construct ID)
T7 sequence (Q9P289 1-300): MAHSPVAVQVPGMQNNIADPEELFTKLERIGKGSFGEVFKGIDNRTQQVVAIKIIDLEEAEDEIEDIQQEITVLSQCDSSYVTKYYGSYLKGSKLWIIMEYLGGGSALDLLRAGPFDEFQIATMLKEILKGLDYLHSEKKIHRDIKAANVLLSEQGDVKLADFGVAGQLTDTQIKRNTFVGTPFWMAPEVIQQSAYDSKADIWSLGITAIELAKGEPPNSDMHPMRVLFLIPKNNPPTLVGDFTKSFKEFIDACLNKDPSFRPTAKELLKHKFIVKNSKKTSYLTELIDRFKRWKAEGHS
Assay type: binding

Structure (SMILES) | ΔTm at 10 µM [°C]
COc1ccc(CNC(=O)Nc2ccc3cc2OCCOCCNc2ccn4ncc-3c4n2)cc1F [compound 32] | 1.2
COc1cc(CNC(=O)Nc2ccc3cc2OCCOCCNc2ccn4ncc-3c4n2)ccc1F [compound 33] | 1.2
C[C@H](NC(=O)Nc1ccc2cc1OCCOCCNc1ccn3ncc-2c3n1)c1ccccc1 [compound 34] | 0.4
CN1CCN(C(=O)Nc2ccc3cc2OCCOCCNc2ccn4ncc-3c4n2)CC1 [compound 35] | -0.4

The compounds below were run against T8, DAPK1 (DAPK1A) (Homo sapiens, UniProt P53355) (assay: DSF Tm panel). Details: 10 μM compound.
T8 construct: purchased in-house DSF kinase panel (SGC-style construct names; the trailing letter is the construct ID)
T8 sequence (P53355 1-285): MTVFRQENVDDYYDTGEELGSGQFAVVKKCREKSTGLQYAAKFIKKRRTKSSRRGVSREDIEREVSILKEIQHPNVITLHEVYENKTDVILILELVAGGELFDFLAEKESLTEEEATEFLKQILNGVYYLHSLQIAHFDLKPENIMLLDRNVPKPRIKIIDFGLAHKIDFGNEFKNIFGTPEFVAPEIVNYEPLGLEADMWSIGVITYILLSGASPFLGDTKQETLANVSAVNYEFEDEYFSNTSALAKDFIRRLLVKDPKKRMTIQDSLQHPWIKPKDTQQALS
Assay type: binding

Structure (SMILES) | ΔTm at 10 µM [°C]
COc1ccc(CNC(=O)Nc2ccc3cc2OCCOCCNc2ccn4ncc-3c4n2)cc1F [compound 32] | 0.4
COc1cc(CNC(=O)Nc2ccc3cc2OCCOCCNc2ccn4ncc-3c4n2)ccc1F [compound 33] | 0.5
C[C@H](NC(=O)Nc1ccc2cc1OCCOCCNc1ccn3ncc-2c3n1)c1ccccc1 [compound 34] | 0.5
CN1CCN(C(=O)Nc2ccc3cc2OCCOCCNc2ccn4ncc-3c4n2)CC1 [compound 35] | 0.7

What follows are compounds tested against T9, MARK3A (Homo sapiens, UniProt P27448) (assay: DSF Tm panel). Details: 10 μM compound.
T9 construct: purchased in-house DSF kinase panel (SGC-style construct names; the trailing letter is the construct ID)
T9 sequence (P27448 56-307): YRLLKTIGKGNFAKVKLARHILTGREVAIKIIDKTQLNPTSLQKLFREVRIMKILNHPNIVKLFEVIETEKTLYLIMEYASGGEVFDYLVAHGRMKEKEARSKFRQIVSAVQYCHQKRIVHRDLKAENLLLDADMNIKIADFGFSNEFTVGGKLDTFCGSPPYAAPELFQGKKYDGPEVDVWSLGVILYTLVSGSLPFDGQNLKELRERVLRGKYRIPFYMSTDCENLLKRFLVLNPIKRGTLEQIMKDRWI
Assay type: binding

Structure (SMILES) | ΔTm at 10 µM [°C]
COc1ccc(CNC(=O)Nc2ccc3cc2OCCOCCNc2ccn4ncc-3c4n2)cc1F [compound 32] | 0.5
COc1cc(CNC(=O)Nc2ccc3cc2OCCOCCNc2ccn4ncc-3c4n2)ccc1F [compound 33] | 0.3
C[C@H](NC(=O)Nc1ccc2cc1OCCOCCNc1ccn3ncc-2c3n1)c1ccccc1 [compound 34] | 0
CN1CCN(C(=O)Nc2ccc3cc2OCCOCCNc2ccn4ncc-3c4n2)CC1 [compound 35] | 0.5

Each compound was assayed against T10, PKMYT1A (Homo sapiens, UniProt Q99640) (assay: DSF Tm panel). Details: 10 μM compound.
T10 construct: purchased in-house DSF kinase panel (SGC-style construct names; the trailing letter is the construct ID)
T10 sequence (Q99640 75-362): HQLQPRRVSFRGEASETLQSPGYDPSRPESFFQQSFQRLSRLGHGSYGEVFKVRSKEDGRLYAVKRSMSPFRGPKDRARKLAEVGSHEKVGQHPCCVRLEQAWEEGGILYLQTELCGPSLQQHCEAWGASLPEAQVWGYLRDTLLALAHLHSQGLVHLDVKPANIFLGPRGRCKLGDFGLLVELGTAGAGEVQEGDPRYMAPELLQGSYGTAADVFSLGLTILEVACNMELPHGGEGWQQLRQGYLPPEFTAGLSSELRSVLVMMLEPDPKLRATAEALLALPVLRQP
Assay type: binding

Structure (SMILES) | ΔTm at 10 µM [°C]
COc1ccc(CNC(=O)Nc2ccc3cc2OCCOCCNc2ccn4ncc-3c4n2)cc1F [compound 32] | 0.4
COc1cc(CNC(=O)Nc2ccc3cc2OCCOCCNc2ccn4ncc-3c4n2)ccc1F [compound 33] | 0.2
C[C@H](NC(=O)Nc1ccc2cc1OCCOCCNc1ccn3ncc-2c3n1)c1ccccc1 [compound 34] | -0.1
CN1CCN(C(=O)Nc2ccc3cc2OCCOCCNc2ccn4ncc-3c4n2)CC1 [compound 35] | 0.8

What follows are compounds tested against T11, CAMK2DA (Homo sapiens, UniProt Q13557) (assay: DSF Tm panel). Details: 10 μM compound.
T11 construct: purchased in-house DSF kinase panel (SGC-style construct names; the trailing letter is the construct ID)
T11 sequence (Q13557 11-309): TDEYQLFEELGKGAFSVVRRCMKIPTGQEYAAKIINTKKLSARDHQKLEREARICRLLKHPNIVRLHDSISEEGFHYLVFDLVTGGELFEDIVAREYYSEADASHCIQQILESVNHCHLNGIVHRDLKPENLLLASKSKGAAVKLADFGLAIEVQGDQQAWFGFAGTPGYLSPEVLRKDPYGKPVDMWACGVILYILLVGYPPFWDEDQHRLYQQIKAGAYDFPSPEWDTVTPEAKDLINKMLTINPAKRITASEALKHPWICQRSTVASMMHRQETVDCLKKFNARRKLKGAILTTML
Assay type: binding

Structure (SMILES) | ΔTm at 10 µM [°C]
COc1ccc(CNC(=O)Nc2ccc3cc2OCCOCCNc2ccn4ncc-3c4n2)cc1F [compound 32] | 2.7
COc1cc(CNC(=O)Nc2ccc3cc2OCCOCCNc2ccn4ncc-3c4n2)ccc1F [compound 33] | 2.4
C[C@H](NC(=O)Nc1ccc2cc1OCCOCCNc1ccn3ncc-2c3n1)c1ccccc1 [compound 34] | 2.2
CN1CCN(C(=O)Nc2ccc3cc2OCCOCCNc2ccn4ncc-3c4n2)CC1 [compound 35] | 0.5

What follows are compounds tested against T12, MAPK1A (Homo sapiens, UniProt P28482) (assay: DSF Tm panel). Details: 10 μM compound.
T12 construct: purchased in-house DSF kinase panel (SGC-style construct names; the trailing letter is the construct ID)
T12 sequence (P28482 whole entry): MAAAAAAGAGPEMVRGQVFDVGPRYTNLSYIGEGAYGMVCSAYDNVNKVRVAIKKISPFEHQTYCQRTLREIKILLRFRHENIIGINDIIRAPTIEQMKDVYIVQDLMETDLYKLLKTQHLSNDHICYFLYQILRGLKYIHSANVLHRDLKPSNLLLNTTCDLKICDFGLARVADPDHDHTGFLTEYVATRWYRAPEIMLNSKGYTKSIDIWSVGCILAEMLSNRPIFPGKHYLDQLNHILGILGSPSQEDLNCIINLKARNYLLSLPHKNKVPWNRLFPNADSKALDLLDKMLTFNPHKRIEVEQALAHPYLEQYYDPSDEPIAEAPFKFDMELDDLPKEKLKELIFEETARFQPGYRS
Assay type: binding

Structure (SMILES) | ΔTm at 10 µM [°C]
COc1ccc(CNC(=O)Nc2ccc3cc2OCCOCCNc2ccn4ncc-3c4n2)cc1F [compound 32] | 0.7
COc1cc(CNC(=O)Nc2ccc3cc2OCCOCCNc2ccn4ncc-3c4n2)ccc1F [compound 33] | 1.6
C[C@H](NC(=O)Nc1ccc2cc1OCCOCCNc1ccn3ncc-2c3n1)c1ccccc1 [compound 34] | 0.7
CN1CCN(C(=O)Nc2ccc3cc2OCCOCCNc2ccn4ncc-3c4n2)CC1 [compound 35] | 0.3

The compounds below were run against T13, EPHA7A (Homo sapiens, UniProt Q15375) (assay: DSF Tm panel). Details: 10 μM compound.
T13 construct: purchased in-house DSF kinase panel (SGC-style construct names; the trailing letter is the construct ID)
T13 sequence (Q15375 590-899): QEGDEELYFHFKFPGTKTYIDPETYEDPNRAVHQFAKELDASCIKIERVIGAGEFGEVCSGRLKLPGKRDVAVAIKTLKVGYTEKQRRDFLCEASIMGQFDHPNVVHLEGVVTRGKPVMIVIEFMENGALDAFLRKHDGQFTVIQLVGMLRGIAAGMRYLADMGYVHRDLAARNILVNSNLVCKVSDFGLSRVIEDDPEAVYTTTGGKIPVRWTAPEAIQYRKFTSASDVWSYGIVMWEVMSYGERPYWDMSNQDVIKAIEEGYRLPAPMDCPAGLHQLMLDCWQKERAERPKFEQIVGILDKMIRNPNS
Assay type: binding

Structure (SMILES) | ΔTm at 10 µM [°C]
COc1ccc(CNC(=O)Nc2ccc3cc2OCCOCCNc2ccn4ncc-3c4n2)cc1F [compound 32] | 2.9
COc1cc(CNC(=O)Nc2ccc3cc2OCCOCCNc2ccn4ncc-3c4n2)ccc1F [compound 33] | 1.9
C[C@H](NC(=O)Nc1ccc2cc1OCCOCCNc1ccn3ncc-2c3n1)c1ccccc1 [compound 34] | 1.9
CN1CCN(C(=O)Nc2ccc3cc2OCCOCCNc2ccn4ncc-3c4n2)CC1 [compound 35] | -1.4

What follows are compounds tested against T14, MAPK10A (Homo sapiens, UniProt P53779) (assay: DSF Tm panel). Details: 10 μM compound.
T14 construct: purchased in-house DSF kinase panel (SGC-style construct names; the trailing letter is the construct ID)
T14 sequence (P53779 39-402): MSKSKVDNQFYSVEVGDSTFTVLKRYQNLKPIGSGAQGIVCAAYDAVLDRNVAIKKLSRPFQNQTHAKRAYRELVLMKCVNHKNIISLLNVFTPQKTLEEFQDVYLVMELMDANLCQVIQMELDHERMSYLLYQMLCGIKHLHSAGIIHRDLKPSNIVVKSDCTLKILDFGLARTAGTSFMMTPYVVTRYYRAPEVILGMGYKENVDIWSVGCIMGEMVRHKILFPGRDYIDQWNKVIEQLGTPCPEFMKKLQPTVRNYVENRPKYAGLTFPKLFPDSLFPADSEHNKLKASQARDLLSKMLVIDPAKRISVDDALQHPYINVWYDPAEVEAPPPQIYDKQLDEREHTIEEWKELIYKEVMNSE
Assay type: binding

Structure (SMILES) | ΔTm at 10 µM [°C]
COc1ccc(CNC(=O)Nc2ccc3cc2OCCOCCNc2ccn4ncc-3c4n2)cc1F [compound 32] | 0.8
COc1cc(CNC(=O)Nc2ccc3cc2OCCOCCNc2ccn4ncc-3c4n2)ccc1F [compound 33] | 0.7
C[C@H](NC(=O)Nc1ccc2cc1OCCOCCNc1ccn3ncc-2c3n1)c1ccccc1 [compound 34] | 0.1
CN1CCN(C(=O)Nc2ccc3cc2OCCOCCNc2ccn4ncc-3c4n2)CC1 [compound 35] | -0.7
